From patent US20140161720A1, “TREATMENT OF ANGIOGENIC- OR VASCULAR-ASSOCIATED DISEASES” (THE GENERAL HOSPITAL CORPORATION, priority 2011, published 2014)
“Also recorded” adds a separate entry of the source.

Legend:
[1] = test system: orthotopic 4T1 mammary tumors; assay: Tumor growth delay study, 4T1; assay type: in vivo, female SCID mice; settings: 4T1 tumors, start ~200 mm^3, 37.5 mg/kg daily i.p.
Protocol: (§1) To assess the anti-tumor effects of DAL, female SCID mice bearing orthotopic 4T1 or E0771 mammary tumors were treated with daily i.p. injections of 37.5 mg/kg DAL or saline. In order to calculate tumor volumes, the major and minor axis diameters were measured with calipers and the tumor volume was calculated by assuming a spherical shape based on the average of these two dimensions. The tumors were implanted in the mammary fat pad and allowed to grow to a starting size (small ˜100 mm^3 tumors for E0771, large ˜200 mm^3 tumors for 4T1) over ˜2 weeks. To ensure that tumors in the two groups were of similar growth rates, the treatment with saline or DAL was begun in pairs of tumors with similar sizes and growth times. Tumor volumes were measured every other day until the tumors reached an average of ˜10 mm in diameter. Tumor growth was quantified with the doubling rate, and calculated by fitting an exponential growth curve to the data for tumor size versus time.
(§2) As shown in Example 3, DAL has an antivascular effect in orthotopic mammary tumors in mice. Thus, the antitumor effect of DAL was next assessed. […] The effect of DAL on the growth of orthotopic 4T1 and E0771 mammary tumors with daily treatment of DAL or saline was evaluated (FIG. 4A). 37.5 mg/kg of DAL was used for these experiments based on the pharmacokinetics results as well as in vitro and in vivo data. […]

[2] = test system: orthotopic E0771 mammary tumors; assay: Tumor growth delay study, E0771; assay type: in vivo, female SCID mice; settings: start ~100 mm^3, 37.5 mg/kg daily i.p.
Protocol: as §1, §2

Rac1 = Rac1 ubiquitination, Duolink in situ proximity assay in HUVECs; assay type: cell-based, human; settings: HUVEC, lactacystin or MG-132 pretreatment, DAL 10 μM 24 hours
Protocol: HUVEC cells were treated with 10 μM of DAL for 24 hours and then lysed. A western blot with anti-human Rac1 antibody is shown on top panel while the bottom panel represents a loading control. […] To enhance ubiquitination events, HUVEC cells were pretreated with the proteasome inhibitors lactacystin (2.5 mM) or MG-132 (0.2 mM) for one hour and subsequently treated with DAL (10 μM) of DAL for 24 hours. Duolink in situ was used for the detection of ubiquitinated Rac1 in DAL treated and untreated HUVEC cells. For the two Duolink PLA probes, primary mouse antibodies raised against human Rac1 and primary rabbit anti-ubiquitin were used. Fluorescent spots represent ubiquitinated Rac1. The nuclei with additionally stained DAPI.
However, protein levels of Rac1 were reduced after DAL treatment (FIG. 6B). Next, it was assessed whether DAL can enhance Rac1 ubiquitination and therefore promote or speed up degradation (31-34). For the detection of Rac1 ubiquitination in HUVECs, Rac1-ubiquitin binding in situ was identified using a Duolink molecular proximity assay. In this assay, molecules thought to interact are targeted with fluorescent antibodies in situ, and individual interactions generate a signal detectable by microscopy only if secondary antibodies are located in close proximity to each other. […]

IDO = target: T1, IDO (Homo sapiens, UniProt P14902); assay: IDO activity in HEK 293 cells expressing IDO (kynurenine, spectrophotometric); assay type: cell-based; settings: kynurenine readout, 10-dose threefold dilutions
T1 construct: expressed in transfected cells; host or cells: HEK 293
Protocol: The IDO activity was analyzed by the presence of kynurenine with a spectrophotometric assay. DAL was tested in a 10-dose IC50 mode with threefold serial dilutions (0.1 μM, 0.3 μM, 0.9 μM, 2.7 μM, 8.1 μM, 24.3 μM, 72.9 μM, 218.7 μM, 656 μM and 2000 μM). […] DAL binds concurrently with the tryptophan substrate (Trp) and prevents the closure of the binding site lid that is critical for the reaction catalysis.
To determine whether DAL is an immuno-modulator, the effect of DAL on IDO activity was measured. To monitor IDO enzymatic activity, HEK 293 cells were engineered to express IDO and treated with DAL in a 10-dose IC50 mode with threefold serial dilutions. The IDO activity was analyzed by the presence of kynurenine (the first stable catabolite downstream of IDO) with a spectrophotometric assay (Katz et al., 2008; Littlejohn et al., 2000). […] Because DAL inhibits recombinant purified IDO in the enzymatic assay, it is likely that DAL physically interacts with IDO1, forming a complex that represses IDO1 activity. To elucidate a possible structural basis for this inhibition, comparative modeling and molecular docking were used (FIGS. 9A-9D). […] It was therefore assessed that if lid closure may be a critical step for the efficient reaction catalysis by IDO. […]

recombinant purified IDO = recombinant purified IDO (Homo sapiens, UniProt P14902); assay: Enzymatic assay with recombinant purified IDO; assay type: biochemical
Protocol: To determine whether DAL is an immuno-modulator, the effect of DAL on IDO activity was measured. To monitor IDO enzymatic activity, HEK 293 cells were engineered to express IDO and treated with DAL in a 10-dose IC50 mode with threefold serial dilutions. The IDO activity was analyzed by the presence of kynurenine (the first stable catabolite downstream of IDO) with a spectrophotometric assay (Katz et al., 2008; Littlejohn et al., 2000). […] Because DAL inhibits recombinant purified IDO in the enzymatic assay, it is likely that DAL physically interacts with IDO1, forming a complex that represses IDO1 activity. To elucidate a possible structural basis for this inhibition, comparative modeling and molecular docking were used (FIGS. 9A-9D). […] These residues are disordered in all existing IDO structures (Thackray et al., 2008); however, in the tryptophan-bound bacterial TDO structure, the corresponding loop is well-ordered and forms a “lid” on the binding pocket. Similar to human IDO1, bacterial TDO is a heme enzyme catalyzing the conversion of tryptophan into N-formyl-kynurenine. The binding site residues are strongly conserved between the two enzymes: in particular, the lid sequences share the common motif [K/R]GTGG[T/S]. It was therefore assessed that if lid closure may be a critical step for the efficient reaction catalysis by IDO. […]

recombinant purified IDO, sequence (P14902 whole entry): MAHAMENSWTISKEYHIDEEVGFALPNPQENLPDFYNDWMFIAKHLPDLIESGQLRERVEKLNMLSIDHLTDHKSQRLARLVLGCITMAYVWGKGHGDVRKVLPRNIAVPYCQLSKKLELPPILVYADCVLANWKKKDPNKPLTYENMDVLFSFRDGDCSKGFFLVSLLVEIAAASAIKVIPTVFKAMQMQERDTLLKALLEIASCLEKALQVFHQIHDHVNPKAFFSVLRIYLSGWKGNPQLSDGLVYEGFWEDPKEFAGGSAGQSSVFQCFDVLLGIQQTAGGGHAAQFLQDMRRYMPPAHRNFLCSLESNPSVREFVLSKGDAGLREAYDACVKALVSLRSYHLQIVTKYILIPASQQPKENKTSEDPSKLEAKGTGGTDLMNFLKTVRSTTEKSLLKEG
T1 sequence (P14902 whole entry): as above

**Q.** What does the source list for `CC1(C)C=CC2=C(O1)C(=O)c1ccccc1C2=O` [DAL, dehydro-alpha-lapachone]?
**A.** tumor volume doubling time [1]: 11.21 ± 3.53 days; tumor volume doubling time [2]: 4.77 ± 0.58 days; Rac1 ubiquitination (Rac1): more ubiquitinated Rac1 protein; also recorded: increases; IC50 (IDO): ~300 nM; inhibition of recombinant purified IDO (recombinant purified IDO): inhibits
